Measured values reported in US20150105252A1, “SUBSTITUTED PYRAZOLES AS HERBICIDES” (E I DU PONT DE NEMOURS AND COMPANY, priority 2013, published 2015).

Key:
sedge, umbrella = assay: Test B flood; assay type: in vivo, Cyperus difformis; conditions: 250 g ai/ha, visual rating on 0 to 100 scale (0 no effect, 100 complete control), 13 to 15 days
How it was run: (§1)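 Visual ratings on a 0–100 scale, where 0 means no effect and 100 means complete control, were assigned by comparison with controls 13 to 15 days after treatment. Compounds went into paddy water over 2-leaf plants flooded to 3 cm.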

pigweed = assay: Test A postemergence; assay type: in vivo, Amaranthus retroflexus
How it was run: (§2)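 After sowing in a sand–loam mix, pots received compound preemergence by directed soil spray, or postemergence once plants reached the one- to two-leaf stage (2–10 cm). Formulation contained surfactant in a non-phytotoxic solvent. Injury was scored visually after ~10 greenhouse days, 0–100 scale.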

foxtail, giant [1] = assay: Test A preemergence; assay type: in vivo, Setaria faberii; conditions: preemergence
How it was run: as §2

crabgrass, large = assay: Test A postemergence; assay type: in vivo, Digitaria sanguinalis
How it was run: as §2

foxtail, giant [2] = assay: Test C preemergence; assay type: in vivo, Setaria faberii; conditions: preemergence; for Plant response rating, Foxtail, Giant: 125 g ai/ha, scale 0 to 100, 0 = no effect, 100 = complete control
How it was run: (§3)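 Herbicidal effect is expressed as percent visual control (0–100) judged against untreated plants 13 to 15 days after treatment in the greenhouse. Preemergence pots contained seeds in a soil–sand blend; postemergence plants, 2–18 cm tall, grew in peat-based planting medium.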

morningglory = assay: Test A preemergence; assay type: in vivo, Ipomoea spp.; conditions: preemergence
How it was run: as §2

ducksalad = assay: Test B flood; assay type: in vivo, Heteranthera limosa; conditions: 250 g ai/ha, visual rating on 0 to 100 scale (0 no effect, 100 complete control), 13 to 15 days
How it was run: as §1

corn [3] = assay: Test C preemergence; assay type: in vivo, Zea mays; conditions: preemergence; for Plant response rating, Corn: 125 g ai/ha, scale 0 to 100, 0 = no effect, 100 = complete control
How it was run: as §3

nutsedge, yellow = assay: Test C preemergence; assay type: in vivo, Cyperus esculentus; conditions: preemergence; for Plant response rating, Nutsedge, Yellow: 125 g ai/ha, scale 0 to 100, 0 = no effect, 100 = complete control
How it was run: as §3

velvetleaf = assay: Test A preemergence; assay type: in vivo, Abutilon theophrasti; conditions: preemergence
How it was run: as §2

galium = assay: Test C preemergence; assay type: in vivo, Galium aparine; conditions: preemergence; for Plant response rating, Galium: 125 g ai/ha, scale 0 to 100, 0 = no effect, 100 = complete control
How it was run: as §3

wheat [4] = assay: Test A postemergence; assay type: in vivo, Triticum aestivum
How it was run: as §2

wheat [5] = assay: Test C preemergence; assay type: in vivo, Triticum aestivum; conditions: preemergence; for Plant response rating, Wheat: 125 g ai/ha, scale 0 to 100, 0 = no effect, 100 = complete control
How it was run: as §3

oilseed rape = assay: Test C preemergence; assay type: in vivo, Brassica napus; conditions: preemergence; for Plant response rating, Oilseed Rape: 125 g ai/ha, scale 0 to 100, 0 = no effect, 100 = complete control
How it was run: as §3

corn [6] = assay: Test A preemergence; assay type: in vivo, Zea mays; conditions: preemergence
How it was run: as §2

[7] = Postemergence, 500 g ai/ha, 0 to 100 scale (0 no effect, 100 complete control)
[8] = postemergence, 125 g ai/ha, about 10 days, visual rating on 0 to 100 scale (0 no effect, 100 complete control)
[9] = 125 g ai/ha, visual injury, 0 to 100 scale, approx. 10 days
[10] = 500 g ai/ha, visual injury after approx. 10 days, 0 to 100 scale (0 no effect, 100 complete control)
[11] = 31 g ai/ha, visual rating, scale 0 to 100 (0 no effect, 100 complete control), 13 to 15 days
[12] = 62 g ai/ha, scale 0 to 100 (0 no effect, 100 complete control), 13 to 15 days
[13] = 250 g ai/ha, scale 0 to 100, 0 is no effect, 100 is complete control
[14] = 125 g ai/ha, visual injury approx. 10 days after treatment

CCc1cc(C(=O)NC(C)C)nn1Cc1ccnc(C(F)(F)F)c1 [Compound 139]
Plant response rating, Sedge, Umbrella (sedge, umbrella): 100
Pigweed plant response rating (pigweed; [7]): 100
Pigweed plant response rating (pigweed; [8]): 90
Foxtail, Giant plant response rating (foxtail, giant [1]; [9]): 100
Foxtail, Giant plant response rating (foxtail, giant [1]; [10]): 100
Crabgrass, Large plant response rating (crabgrass, large; [7]): 90
Crabgrass, Large plant response rating (crabgrass, large; [8]): 90
Foxtail, Giant plant response rating (foxtail, giant [2]; [11]): 90
Foxtail, Giant plant response rating (foxtail, giant [2]; [12]): 100
Plant response rating, Foxtail, Giant (foxtail, giant [2]; 13 to 15 days): 100
Foxtail, Giant plant response rating (foxtail, giant [2]; [13]): 100
Morningglory plant response rating (morningglory; [9]): 40
Morningglory plant response rating (morningglory; [10]): 100
Plant response rating, Ducksalad (ducksalad): 100
Corn plant response rating (corn [3]; [11]): 25
Corn plant response rating (corn [3]; [12]): 30
Plant response rating, Corn (corn [3]; 13 to 15 days): 85
Corn plant response rating (corn [3]; [13]): 80
Nutsedge, Yellow plant response rating (nutsedge, yellow; [11]): 15
Nutsedge, Yellow plant response rating (nutsedge, yellow; [12]): 10
Plant response rating, Nutsedge, Yellow (nutsedge, yellow; 13 to 15 days): 35
Nutsedge, Yellow plant response rating (nutsedge, yellow; [13]): 50
Velvetleaf plant response rating (velvetleaf; [9]): 30
Velvetleaf plant response rating (velvetleaf; [10]): 100
Galium plant response rating (galium; [11]): 30
Galium plant response rating (galium; [12]): 80
Plant response rating, Galium (galium; 13 to 15 days): 100
Galium plant response rating (galium; [13]): 100
Wheat plant response rating (wheat [4]; [7]): 90
Wheat plant response rating (wheat [4]; [8]): 50
Wheat plant response rating (wheat [5]; [11]): 30
Wheat plant response rating (wheat [5]; [12]): 85
Plant response rating, Wheat (wheat [5]; 13 to 15 days): 85
Wheat plant response rating (wheat [5]; [13]): 90
Oilseed Rape plant response rating (oilseed rape; [11]): 50
Oilseed Rape plant response rating (oilseed rape; [12]): 100
Plant response rating, Oilseed Rape (oilseed rape; 13 to 15 days): 100
Oilseed Rape plant response rating (oilseed rape; [13]): 100
Corn plant response rating (corn [6]; [9]): 30
Corn plant response rating (corn [6]; [10]): 90

O=C(NCC(F)(F)F)c1cc(CCCl)n(Cc2ccnc(C(F)(F)F)c2)n1 [Compound 143]
Plant response rating, Sedge, Umbrella (sedge, umbrella): 95
Pigweed plant response rating (pigweed; [7]): 100
Pigweed plant response rating (pigweed; [8]): 100
Foxtail, Giant plant response rating (foxtail, giant [1]; [9]): 100
Foxtail, Giant plant response rating (foxtail, giant [1]; [10]): 100
Crabgrass, Large plant response rating (crabgrass, large; [7]): 90
Crabgrass, Large plant response rating (crabgrass, large; [8]): 90
Foxtail, Giant plant response rating (foxtail, giant [2]; [11]): 100
Foxtail, Giant plant response rating (foxtail, giant [2]; [12]): 100
Plant response rating, Foxtail, Giant (foxtail, giant [2]; 13 to 15 days): 100
Foxtail, Giant plant response rating (foxtail, giant [2]; [13]): 100
Morningglory plant response rating (morningglory; [9]): 100
Morningglory plant response rating (morningglory; [10]): 100
Plant response rating, Ducksalad (ducksalad): 100
Corn plant response rating (corn [3]; [11]): 40
Corn plant response rating (corn [3]; [12]): 75
Plant response rating, Corn (corn [3]; 13 to 15 days): 90
Corn plant response rating (corn [3]; [13]): 95
Nutsedge, Yellow plant response rating (nutsedge, yellow; [11]): 30
Nutsedge, Yellow plant response rating (nutsedge, yellow; [12]): 40
Plant response rating, Nutsedge, Yellow (nutsedge, yellow; 13 to 15 days): 80
Nutsedge, Yellow plant response rating (nutsedge, yellow; [13]): 90
Velvetleaf plant response rating (velvetleaf; [9]): 50
Velvetleaf plant response rating (velvetleaf; [10]): 100
Galium plant response rating (galium; [11]): 90
Galium plant response rating (galium; [12]): 100
Plant response rating, Galium (galium; 13 to 15 days): 95
Galium plant response rating (galium; [13]): 100
Wheat plant response rating (wheat [4]; [7]): 80
Wheat plant response rating (wheat [4]; [8]): 60
Wheat plant response rating (wheat [5]; [11]): 40
Wheat plant response rating (wheat [5]; [12]): 60
Plant response rating, Wheat (wheat [5]; 13 to 15 days): 80
Wheat plant response rating (wheat [5]; [13]): 85
Oilseed Rape plant response rating (oilseed rape; [11]): 100
Oilseed Rape plant response rating (oilseed rape; [12]): 100
Plant response rating, Oilseed Rape (oilseed rape; 13 to 15 days): 95
Oilseed Rape plant response rating (oilseed rape; [13]): 100
Corn plant response rating (corn [6]; [9]): 50
Corn plant response rating (corn [6]; [10]): 80

CCCNC(=O)c1cc(CCCl)n(Cc2ccnc(C(F)(F)F)c2)n1 [Compound 145]
Plant response rating, Sedge, Umbrella (sedge, umbrella): 95
Pigweed plant response rating (pigweed; [7]): 100
Pigweed plant response rating (pigweed; [8]): 100
Foxtail, Giant plant response rating (0 to 100 scale) (foxtail, giant [1]; [14]): 100
Foxtail, Giant plant response rating (foxtail, giant [1]; [10]): 100
Crabgrass, Large plant response rating (crabgrass, large; [7]): 90
Crabgrass, Large plant response rating (crabgrass, large; [8]): 90
Foxtail, Giant plant response rating (foxtail, giant [2]; [11]): 100
Plant response rating, Foxtail, Giant (foxtail, giant [2]; 13 to 15 days): 100
Foxtail, Giant plant response rating (foxtail, giant [2]; [13]): 100
Morningglory plant response rating (0 to 100 scale) (morningglory; [14]): 100
Morningglory plant response rating (morningglory; [10]): 100
Plant response rating, Ducksalad (ducksalad): 100
Corn plant response rating (corn [3]; [11]): 10
Corn plant response rating (corn [3]; [12]): 50
Plant response rating, Corn (corn [3]; 13 to 15 days): 80
Corn plant response rating (corn [3]; [13]): 90
Nutsedge, Yellow plant response rating (nutsedge, yellow; [11]): 10
Nutsedge, Yellow plant response rating (nutsedge, yellow; [12]): 75
Plant response rating, Nutsedge, Yellow (nutsedge, yellow; 13 to 15 days): 60
Nutsedge, Yellow plant response rating (nutsedge, yellow; [13]): 90
Velvetleaf plant response rating (0 to 100 scale) (velvetleaf; [14]): 50
Velvetleaf plant response rating (velvetleaf; [10]): 80
Galium plant response rating (galium; [11]): 90
Galium plant response rating (galium; [12]): 95
Plant response rating, Galium (galium; 13 to 15 days): 95
Galium plant response rating (galium; [13]): 100
Wheat plant response rating (wheat [4]; [7]): 80
Wheat plant response rating (wheat [4]; [8]): 50
Wheat plant response rating (wheat [5]; [11]): 5
Wheat plant response rating (wheat [5]; [12]): 40
Plant response rating, Wheat (wheat [5]; 13 to 15 days): 50
Wheat plant response rating (wheat [5]; [13]): 90
Oilseed Rape plant response rating (oilseed rape; [11]): 60
Oilseed Rape plant response rating (oilseed rape; [12]): 98
Plant response rating, Oilseed Rape (oilseed rape; 13 to 15 days): 100
Oilseed Rape plant response rating (oilseed rape; [13]): 98
Corn plant response rating (0 to 100 scale) (corn [6]; [14]): 30
Corn plant response rating (corn [6]; [10]): 60
